Results: patent US10532106B2 (priority 2014, dated 2020)
“Also recorded” adds a separate entry of the source. Like-named read-outs stand apart in the source and are kept apart here. One block for each compound: values may come before it. Numbered stars: 1 amine (or outer) side, 2 acyl side, 3 side chain; on linkers, the order of the positions; unused ones are H or OH. Bridge positions count the residues as written; N and C are the ends. Square brackets hold non-standard residues; d marks the D form. Peptide text beside a SMILES is read from it. * marks the point of attachment. X1 = COc1cc2cc(c1Cl)N(C)C(=O)C[C@H](OC(=O)[C@H](C)N(C)C(=O)CCC(C)(C)SSCCCC(=O)*)[C@]1(C)O[C@H]1[C@H](C)[C@@H]1C[C@@](O)(NC(=O)O1)[C@H](OC)/C=C/C=C(\C)C2; X2 = COc1cc2cc(c1Cl)N(C)C(=O)C[C@H](OC(=O)[C@H](C)N(C)C(=O)CCC(C)SSC(C)CCC(=O)*)[C@]1(C)O[C@H]1[C@H](C)[C@@H]1C[C@@](O)(NC(=O)O1)[C@H](OC)/C=C/C=C(\C)C2; X3 = COc1cc2cc(c1Cl)N(C)C(=O)C[C@H](OC(=O)[C@H](C)N(C)C(=O)CCSSCCCC(=O)*)[C@]1(C)O[C@H]1[C@H](C)[C@@H]1C[C@@](O)(NC(=O)O1)[C@H](OC)/C=C/C=C(\C)C2; 1Nal = N[C@@H](Cc1cccc2ccccc12)C(=O)O; TBMB = c1c(C[*:1])cc(C[*:3])cc1C[*:2]; Tle = CC(C)(C)[C@H](N)C(=O)O; βAla = NCCC(=O)O; Sar = CNCC(=O)O

Columns and labels:
[1] = target: T1, MT1-MMP hemopexin domain (Homo sapiens, UniProt P50281); test: Competition assay using fluorescence polarisation; assay type: binding
T1 construct: residues Cys319-Gly511 from the human gene; His6 (N); made in house; host or cells: HEK293 (transient), pEXPR-IBA42 vector
How it was run: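 Pre-formed PEX–fluorescent tracer complex titrated with non-fluoresceinated bicyclic peptide, which displaces tracer and lowers fluorescence polarisation. Competitor Kd obtained by fitting to the cubic-equation solution for tracer/titrant/protein equilibria, using tracer Kd from separate direct-binding FP.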

[2] = Plasma stability, quantitative LC-MS (Method #2); assay type: in vitro ADME, human; conditions: for t1/2 (hrs) (human plasma): Table 16, incubation up to 24 hrs, 4 μM; for degradation half-life in human plasma: refers to Table 16
Description: (§1) […] […] Prior to LC-MS analysis, samples were defrosted, and mixed with 3 volumes (here, 120 μL) of 1:1 acetonitrile/MeOH water. The milky suspensions were centrifuged for 30 min at 13000 rpm, and peptide-containing supernatants were quantitated for doubly/triply charged species and MS/MS fragments thereof using a Waters Xevo TQ-D instrument, while using a plasma extracted standard curve of the same peptides as a reference. The half-life of degradation in plasma was used to assess the comparative stability of the molecules.

[3] = Plasma stability, quantitative LC-MS (Method #2); assay type: in vitro ADME, mouse; conditions: Table 16; incubation up to 24 hrs, 4 μM
Description: as §1

[4] = Plasma stability, quantitative LC-MS; assay type: in vitro ADME, rat; conditions: Table 16; incubation up to 24 hrs, 4 μM
[5] = test system: HT-1080 xenograft tumours; test: Efficacy in HT-1080 xenograft mice; assay type: in vivo, mouse; conditions: HT1080 xenograft
Description: Balb/c nude mice bearing subcutaneous HT-1080 xenograft tumours were treated with BDCs or vehicle (PBS). BDCs were dosed 3 times weekly for 2 weeks, dosing initiated when tumours measured approx. 150-200 mm^3. Mice were monitored, and measurements of tumour volume and body weight recorded 3 times a week.

[6] = Relative stability to DTT of Bicycle Drug Conjugates, quantitative LC-MS; assay type: physicochemical; conditions: Bicycle Drug Conjugates containing the disulphide linker
Description: The four BDCs were assessed for several in vitro parameters such as retention of potency to the human MT1-MMP hemopexin domain, stability in ex vivo mouse, rat and human plasma, and stability to reducing agents such as dithiothreitol.

[7] = test system: human lung squamous cell carcinoma line EBC-1; test: Efficacy in EBC-1 xenograft mice; assay type: in vivo, mouse
Description: All BDCs containing the stabilised bicycle core sequence were tested for their efficacies in in vivo mouse xenograft models, using the human lung squamous cell carcinoma line EBC-1.
The area under the curve (AUC) of tumour volume over time and BDC was taken and plotted against the corresponding dose group (FIG. 13).

[8] = cited from earlier work; for reduction in sensitivity to a reducing agent such as dithiothreitol (compared to the non-hindered disulphide): in the antibody drug conjugate context; for Relative Stability to DTT (ADC): values relate to antibody drug conjugates containing the disulphide linker
[9] = target: T2, hemopexin domain of MT1-MMP (Homo sapiens, UniProt P50281); test: Hemopexin binding assay using the alpha screen; conditions: qualitative
T2 construct: residues Cys319-Gly511 from the human gene; His6 (N); made in house; host or cells: HEK293 (transient), pEXPR-IBA42 vector
Description: Employing previously established methods for generating bicyclic peptide phage libraries, selections were performed against the human hemopexin domain of MT1-MMP.
The most frequently occurring sequences were assayed for Hemopexin binding using the alpha screen, where all signals were high compared to the original 17-69 sequence (see Table 1 and FIG. 14): […]

[10] = plasma samples from mice dosed intravenously (0.5, 1 and 2 hrs); conditions: male CD1 mice, up to 2 hrs
[11] = plasma samples taken at t=0.5, 1 and 2 hrs from intravenously dosed mice; conditions: male CD1 mice, up to 2 hrs
[12] = rat plasma; conditions: up to 24 hrs
[13] = human plasma; conditions: up to 24 hrs
[14] = mouse plasma; conditions: up to 24 hrs
[15] = Table 16, footnote e: 17-69-07-N004 as tracer in FP competition, read-out: Kd (nM) (Hemopexin domain)

Compound: C[C@H](NC(=O)CN(C)C(=O)CN(C)C(=O)CN(C)C(=O)CN(C)C(=O)CN(C)C(=O)CN(C)C(=O)CN(C)C(=O)CN(C)C(=O)CN(C)C(=O)CN(C)C(=O)CCN)C(=O)N[C@H]1CSCc2cc3cc(c2)CSC[C@H](NC(=O)[C@@H](C)NC(=O)[C@H](Cc2cccc4ccccc24)NC(=O)[C@H](CCC(=O)O)NC(=O)[C@H](CC(N)=O)NC(=O)[C@@H](C)NC1=O)C(=O)N[C@@H](CCC(=O)O)C(=O)N[C@@H](CC(=O)O)C(=O)N[C@@H](Cc1ccccc1)C(=O)N[C@@H](Cc1ccc(O)cc1)C(=O)N[C@@H](CC(=O)O)C(=O)N[C@@H](C(C)(C)C)C(=O)N[C@H](C(N)=O)CSC3 [17-69-07-N241, bAla-Sar10-A-(17-69-07) D-Ala1 1Nal4 D-Ala5 tBuGly11] (H-[βAla][Sar][Sar][Sar][Sar][Sar][Sar][Sar][Sar][Sar][Sar]AC[dA]NE[1Nal][dA]CEDFYD[Tle]C-NH2; linker 13-19-26 via TBMB)
- Kd ([1]; Table 12, molecules selected for plasma stability assessment, read-out: Kd): 1.21 ± 0.24 nM
- Kd [1, 15]: 1.4 ± 0.3 nM
- species cross-reactivity ([1]; murine, dog, cynomolgus and human MT1-MMP): fully cross reactive
- t1/2 (hrs) (human plasma) [2]: >36 h
- t1/2 (hrs) (mouse plasma) [3]: >36 h
- t1/2 (hrs) (rat plasma) [4]: >36 h

Compound: CC[C@H](C)[C@@H]1NC(=O)[C@H](CC(=O)O)NC(=O)[C@H](Cc2ccc(O)cc2)NC(=O)[C@H](Cc2ccccc2)NC(=O)[C@H](CC(=O)O)NC(=O)[C@H](CCC(=O)O)NC(=O)[C@@H]2CSCc3cc(cc(c3)CSC[C@H](NC(=O)[C@H](C)NC(=O)CN(C)C(=O)CN(C)C(=O)CN(C)C(=O)CN(C)C(=O)CN(C)C(=O)CN(C)C(=O)CN(C)C(=O)CN(C)C(=O)CN(C)C(=O)CN(C)C(=O)CNC(=O)CCCSSCCC(=O)N(C)[C@@H](C)C(=O)O[C@H]3CC(=O)N(C)c4cc(cc(OC)c4Cl)C/C(C)=C/C=C/[C@@H](OC)[C@@]4(O)C[C@H](OC(=O)N4)[C@@H](C)[C@@H]4O[C@@]34C)C(=O)N[C@@H](Cc3ccc(O)cc3)C(=O)N[C@@H](CC(N)=O)C(=O)N[C@@H](CCC(=O)O)C(=O)N[C@@H](Cc3ccccc3)C(=O)NCC(=O)N2)CSC[C@@H](C(N)=O)NC1=O [BT17BDC-9] (X3-G[Sar][Sar][Sar][Sar][Sar][Sar][Sar][Sar][Sar][Sar]ACYNEFGCEDFYDIC-NH2; linker 13-19-26 via TBMB)
- weight of the animals [5]: largely stable
- tumour volume ([5]; compared to vehicle control, listed as BDC17BDC-9): significant reduction in tumour volume after 9 days post injection; also recorded: Tumours were completely cleared by day 14

Compound: COc1cc2cc(c1Cl)N(C)C(=O)C[C@H](OC(=O)[C@H](C)N(C)C(=O)CCC(C)(C)SSCCCC(=O)NCCC(=O)N(C)CC(=O)N(C)CC(=O)N(C)CC(=O)N(C)CC(=O)N(C)CC(=O)N(C)CC(=O)N(C)CC(=O)N(C)CC(=O)N(C)CC(=O)N(C)CC(=O)N[C@@H](C)C(=O)N[C@H]1CSCc3cc4cc(c3)CSC[C@H](NC(=O)[C@@H](C)NC(=O)[C@H](Cc3cccc5ccccc35)NC(=O)[C@H](CCC(=O)O)NC(=O)[C@H](CC(N)=O)NC(=O)[C@@H](C)NC1=O)C(=O)N[C@@H](CCC(=O)O)C(=O)N[C@@H](CC(=O)O)C(=O)N[C@@H](Cc1ccccc1)C(=O)N[C@@H](Cc1ccc(O)cc1)C(=O)N[C@@H](CC(=O)O)C(=O)N[C@@H](C(C)(C)C)C(=O)N[C@H](C(N)=O)CSC4)[C@]1(C)O[C@H]1[C@H](C)[C@@H]1C[C@@](O)(NC(=O)O1)[C@H](OC)/C=C/C=C(\C)C2 [BT17BDC-19] ({X1-βAla}-[Sar][Sar][Sar][Sar][Sar][Sar][Sar][Sar][Sar][Sar]AC[dA]NE[1Nal][dA]CEDFYD[Tle]C-NH2; linker 12-18-25 via TBMB)
- Kd [1, 15]: 0.5 nM
- degradation half-life in human plasma [2]: > 14 h
- t1/2 (hrs) (mouse plasma) [3]: >36 h
- t1/2 (hrs) (rat plasma) [4]: >36 h
- Relative Stability to DTT (BDC) [6]: 30
- efficacy, tumour clearance [7]: efficacious and cleared tumours in 9 days
- tolerability, body weight [7]: well tolerated at efficacious doses
- reduction in sensitivity to a reducing agent such as dithiothreitol (compared to the non-hindered disulphide) [8]: 14 fold
- Relative Stability to DTT (ADC) [8]: 14

Compound: COc1cc2cc(c1Cl)N(C)C(=O)C[C@H](OC(=O)[C@H](C)N(C)C(=O)CCC(C)SSC(C)CCC(=O)NCCC(=O)N(C)CC(=O)N(C)CC(=O)N(C)CC(=O)N(C)CC(=O)N(C)CC(=O)N(C)CC(=O)N(C)CC(=O)N(C)CC(=O)N(C)CC(=O)N(C)CC(=O)N[C@@H](C)C(=O)N[C@H]1CSCc3cc4cc(c3)CSC[C@H](NC(=O)[C@@H](C)NC(=O)[C@H](Cc3cccc5ccccc35)NC(=O)[C@H](CCC(=O)O)NC(=O)[C@H](CC(N)=O)NC(=O)[C@@H](C)NC1=O)C(=O)N[C@@H](CCC(=O)O)C(=O)N[C@@H](CC(=O)O)C(=O)N[C@@H](Cc1ccccc1)C(=O)N[C@@H](Cc1ccc(O)cc1)C(=O)N[C@@H](CC(=O)O)C(=O)N[C@@H](C(C)(C)C)C(=O)N[C@H](C(N)=O)CSC4)[C@]1(C)O[C@H]1[C@H](C)[C@@H]1C[C@@](O)(NC(=O)O1)[C@H](OC)/C=C/C=C(\C)C2 (stereo partly drawn) [BT17BDC-20] ({X2-βAla}-[Sar][Sar][Sar][Sar][Sar][Sar][Sar][Sar][Sar][Sar]AC[dA]NE[1Nal][dA]CEDFYD[Tle]C-NH2; linker 12-18-25 via TBMB)
- Kd ([1]; Table 16, footnote f: 17-69-07-N040 as tracer in FP competition, read-out: Kd (nM) (Hemopexin domain)): 2.95 ± 1.3 nM
- t1/2 (hrs) (human plasma) [2]: 32 ± 1 h
- degradation half-life in human plasma [2]: > 14 h
- t1/2 (hrs) (mouse plasma) [3]: >36 h
- t1/2 (hrs) (rat plasma) [4]: 34 ± 4 h
- Relative Stability to DTT (BDC) [6]: 93
- efficacy, tumour clearance [7]: not efficacious and only caused a marginal reduction in tumour sizes
- tolerability, body weight [7]: tolerated based on constant weight
- reduction in sensitivity to a reducing agent such as dithiothreitol (compared to the non-hindered disulphide) [8]: 170 fold
- Relative Stability to DTT (ADC) [8]: 170

Compound: CC[C@H](C)[C@@H]1NC(=O)[C@H](CC(=O)O)NC(=O)[C@H](Cc2ccc(O)cc2)NC(=O)[C@H](Cc2ccccc2)NC(=O)[C@H](CC(=O)O)NC(=O)[C@H](CCC(=O)O)NC(=O)[C@@H]2CSCc3cc(cc(c3)CSC[C@H](N)C(=O)N[C@@H](CCCCN)C(=O)N[C@@H](CC(N)=O)C(=O)N[C@@H](CCCNC(=N)N)C(=O)NCC(=O)N[C@@H](Cc3ccccc3)C(=O)NCC(=O)N2)CSC[C@@H](C(N)=O)NC1=O [Peptide 17-69] (H-CKNRGFGCEDFYDIC-NH2; linker 1-8-15 via TBMB)
- alpha screen binding signal [9]: qualitative binding to the target was verified

Compound: Ac-CYNEFGCEDFYDIC
- fragment found [10]: excision of YNEFG in loop 1 (entire loop removed); also recorded: excision of EDFYDI in loop 2 (entire loop removed), minor
- fragment found [11]: excision of YNE in loop 1, major; also recorded: excision of YNEF in loop 1; also recorded: excision of YNEFG in loop 1 (the entire loop is removed); also recorded: excision of YD in loop 2, minor; also recorded: excision of FYD in loop 2, minor; also recorded: excision of YDI in loop 2, minor; also recorded: excision of EDFYDI in loop 2 (the entire loop is removed), minor

- not cleaved [12]: stable; t1/2 >36 hrs (rat plasma)
- not cleaved [13]: stable; t1/2 >36 hrs (human plasma)
- not cleaved [14]: stable; t1/2 >36 hrs (mouse plasma)
Compound: βAla-Sar10-A-C(D-Ala)NE(1Nal)(D-Ala)CEDFYD(tBuGly)C
